Test [1] deals with Tyrosine-protein kinase Lyn (Homo sapiens) (UniProt P07948). In words: Inhibition of LYN (unknown origin) by selectscreen kinase assay. To be noted: dose 10.0 µM, time 60.0 min.
Test [2] addresses Mitogen-activated protein kinase kinase kinase kinase 4 (Homo sapiens) (UniProt O95819). In words: Inhibition of recombinant human GST-tagged full length MAP4K4 expressed in baculovirus expression system using Ser/Thr 07 as substrate at 10 uM incubated for 60 mins by Z'-lyte assay relative to control.
The target in test [3] is Maternal embryonic leucine zipper kinase (Homo sapiens) (UniProt Q14680). Description: Inhibition of recombinant human GST-tagged MELK (1 to 340 residues) expressed in baculovirus expression system using Ser/Thr 17 as substrate at 10 uM incubated for 60 mins by Z'-lyte assay relative to control.
The target in test [4] is Dual specificity protein kinase CLK3 (Homo sapiens) (UniProt P49761). In words: Inhibition of recombinant human GST-tagged full length CLK3 expressed in baculovirus expression system using Ser/Thr 18 as substrate at 10 uM incubated for 60 mins by Z'-Lyte assay relative to control.
The target of test [5] is Dual specificity tyrosine-phosphorylation-regulated kinase 1A (Homo sapiens) (UniProt Q13627). In words: Inhibition of recombinant human GST-tagged full length DYRK1A expressed in baculovirus expression system using Ser/Thr 18 as substrate at 10 uM incubated for 60 mins by Z'-Lyte assay relative to control.
For test [6], the target named is Protein kinase C theta type (Homo sapiens) (UniProt Q04759). In words: Inhibition of recombinant human His-tagged full length PKCtheta expressed in baculovirus expression system using Ser/Thr 07 as substrate at 10 uM incubated for 60 mins by Z'-lyte assay relative to control.
In test [7] the target is Serine/threonine-protein kinase Sgk2 (Homo sapiens) (UniProt Q9HBY8). Description: Inhibition of recombinant human GST-tagged full length SGK2 (54 to 427 residues) expressed in baculovirus expression system using Ser/Thr 06 as substrate at 10 uM incubated for 60 mins by Z'-Lyte assay relative to control.
Test [8] deals with Vascular endothelial growth factor receptor 2 (Homo sapiens) (UniProt P35968). In words: Inhibition of recombinant human His-tagged KDR (789 to 1356 residues) expressed in baculovirus expression system using Tyr 01 as substrate at 10 uM incubated for 60 mins by Z'-lyte assay relative to control.
Test [9] has as its target cGMP-dependent protein kinase 1 (Homo sapiens) (UniProt Q13976). Description: Inhibition of recombinant human GST-tagged full length […] expressed in baculovirus expression system using Ser/Thr 01 as substrate at 10 uM incubated for 60 mins by Z'-lyte assay relative to control.
The target in test [10] is Proto-oncogene tyrosine-protein kinase Src (Homo sapiens) (UniProt P12931). Description: Inhibition of recombinant human C-terminal His-tagged full length SRC expressed in baculovirus expression system using Tyr 02 as substrate at 10 uM incubated for 60 mins by Z'-Lyte assay relative to control.

The source of these data is ChEMBL document CHEMBL4665648, “Potent and selective inhibitors of receptor-interacting protein kinase 1 that lack an aromatic back pocket group” (Bioorg Med Chem Lett, 2019).

What is called inhibition is the relative decrease from the control value, in per cent.

Dual specificity protein kinase CLK3 (Homo sapiens), sequence (P49761 whole entry, looked up): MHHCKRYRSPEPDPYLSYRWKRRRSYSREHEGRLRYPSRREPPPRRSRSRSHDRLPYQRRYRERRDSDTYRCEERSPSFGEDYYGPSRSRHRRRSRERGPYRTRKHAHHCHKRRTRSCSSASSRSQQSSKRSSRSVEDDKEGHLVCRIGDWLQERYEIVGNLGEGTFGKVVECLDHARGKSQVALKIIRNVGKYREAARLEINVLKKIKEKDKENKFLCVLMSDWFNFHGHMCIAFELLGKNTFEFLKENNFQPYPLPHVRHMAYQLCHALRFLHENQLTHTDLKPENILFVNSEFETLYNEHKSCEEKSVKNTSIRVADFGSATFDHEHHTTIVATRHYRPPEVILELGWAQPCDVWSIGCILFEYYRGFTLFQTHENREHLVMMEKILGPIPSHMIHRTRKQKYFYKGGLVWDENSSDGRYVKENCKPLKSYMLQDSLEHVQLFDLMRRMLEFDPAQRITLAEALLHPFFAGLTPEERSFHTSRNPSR
Proto-oncogene tyrosine-protein kinase Src (Homo sapiens), sequence (P12931 2-536 limits assumed): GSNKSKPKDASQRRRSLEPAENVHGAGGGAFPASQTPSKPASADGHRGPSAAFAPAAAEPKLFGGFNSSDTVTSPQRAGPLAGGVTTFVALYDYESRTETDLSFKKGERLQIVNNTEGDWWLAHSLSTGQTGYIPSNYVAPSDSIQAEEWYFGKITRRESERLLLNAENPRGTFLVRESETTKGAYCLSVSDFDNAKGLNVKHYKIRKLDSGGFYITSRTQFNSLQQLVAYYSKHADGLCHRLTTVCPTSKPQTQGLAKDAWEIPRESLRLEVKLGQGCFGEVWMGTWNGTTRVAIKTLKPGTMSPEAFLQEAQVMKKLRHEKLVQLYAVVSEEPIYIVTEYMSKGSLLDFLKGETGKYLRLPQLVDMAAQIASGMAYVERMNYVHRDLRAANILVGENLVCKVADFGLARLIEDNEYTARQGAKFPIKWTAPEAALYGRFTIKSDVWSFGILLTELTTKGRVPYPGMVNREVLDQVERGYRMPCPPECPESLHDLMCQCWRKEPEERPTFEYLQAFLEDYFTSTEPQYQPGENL
Protein kinase C theta type (Homo sapiens), sequence (Q04759 whole entry, looked up, the tested form may be a part): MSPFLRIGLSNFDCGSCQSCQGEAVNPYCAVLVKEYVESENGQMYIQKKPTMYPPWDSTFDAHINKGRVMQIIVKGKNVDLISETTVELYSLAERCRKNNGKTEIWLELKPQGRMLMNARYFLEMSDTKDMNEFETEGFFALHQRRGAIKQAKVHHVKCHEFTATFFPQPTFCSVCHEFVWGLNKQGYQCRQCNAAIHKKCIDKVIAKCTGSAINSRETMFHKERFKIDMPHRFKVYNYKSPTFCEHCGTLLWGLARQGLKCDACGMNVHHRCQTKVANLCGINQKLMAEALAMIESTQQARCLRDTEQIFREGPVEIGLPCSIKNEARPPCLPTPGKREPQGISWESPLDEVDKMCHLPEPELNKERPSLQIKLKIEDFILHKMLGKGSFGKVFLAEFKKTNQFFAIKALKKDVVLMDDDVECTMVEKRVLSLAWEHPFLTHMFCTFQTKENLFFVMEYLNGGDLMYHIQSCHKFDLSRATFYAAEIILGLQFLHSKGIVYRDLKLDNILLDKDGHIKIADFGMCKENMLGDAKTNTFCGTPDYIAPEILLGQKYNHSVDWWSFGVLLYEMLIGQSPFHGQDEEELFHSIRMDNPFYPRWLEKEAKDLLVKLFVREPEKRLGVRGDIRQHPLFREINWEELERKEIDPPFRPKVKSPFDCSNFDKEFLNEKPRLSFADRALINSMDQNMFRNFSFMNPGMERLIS
Tyrosine-protein kinase Lyn (Homo sapiens), sequence (P07948 whole entry, looked up): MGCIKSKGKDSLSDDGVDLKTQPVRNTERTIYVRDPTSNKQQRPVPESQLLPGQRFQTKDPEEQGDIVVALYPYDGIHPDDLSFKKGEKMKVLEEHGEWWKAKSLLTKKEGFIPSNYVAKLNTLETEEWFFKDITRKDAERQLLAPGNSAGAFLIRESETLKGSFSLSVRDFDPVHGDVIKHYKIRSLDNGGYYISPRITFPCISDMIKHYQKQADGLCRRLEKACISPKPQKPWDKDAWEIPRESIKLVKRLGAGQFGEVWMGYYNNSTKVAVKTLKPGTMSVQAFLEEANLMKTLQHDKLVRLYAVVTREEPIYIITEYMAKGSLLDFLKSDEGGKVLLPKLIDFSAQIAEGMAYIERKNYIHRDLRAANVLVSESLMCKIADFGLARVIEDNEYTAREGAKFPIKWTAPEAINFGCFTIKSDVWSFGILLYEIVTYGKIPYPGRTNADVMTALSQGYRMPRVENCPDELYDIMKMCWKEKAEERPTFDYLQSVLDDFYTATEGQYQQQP
Serine/threonine-protein kinase Sgk2 (Homo sapiens), sequence (Q9HBY8 whole entry, the tested form may be a part): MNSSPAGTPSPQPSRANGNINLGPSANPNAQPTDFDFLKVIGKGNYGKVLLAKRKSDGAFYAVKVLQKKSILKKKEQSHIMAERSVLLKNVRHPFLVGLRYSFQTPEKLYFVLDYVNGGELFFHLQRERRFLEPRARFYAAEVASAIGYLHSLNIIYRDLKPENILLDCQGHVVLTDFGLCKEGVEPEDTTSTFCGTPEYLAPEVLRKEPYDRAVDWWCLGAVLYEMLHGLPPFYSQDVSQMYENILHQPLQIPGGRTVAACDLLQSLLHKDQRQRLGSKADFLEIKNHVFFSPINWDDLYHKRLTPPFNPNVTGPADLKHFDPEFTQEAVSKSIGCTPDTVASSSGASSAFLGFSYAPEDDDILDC
Vascular endothelial growth factor receptor 2 (Homo sapiens), sequence (P35968 whole entry, the tested form may be a part): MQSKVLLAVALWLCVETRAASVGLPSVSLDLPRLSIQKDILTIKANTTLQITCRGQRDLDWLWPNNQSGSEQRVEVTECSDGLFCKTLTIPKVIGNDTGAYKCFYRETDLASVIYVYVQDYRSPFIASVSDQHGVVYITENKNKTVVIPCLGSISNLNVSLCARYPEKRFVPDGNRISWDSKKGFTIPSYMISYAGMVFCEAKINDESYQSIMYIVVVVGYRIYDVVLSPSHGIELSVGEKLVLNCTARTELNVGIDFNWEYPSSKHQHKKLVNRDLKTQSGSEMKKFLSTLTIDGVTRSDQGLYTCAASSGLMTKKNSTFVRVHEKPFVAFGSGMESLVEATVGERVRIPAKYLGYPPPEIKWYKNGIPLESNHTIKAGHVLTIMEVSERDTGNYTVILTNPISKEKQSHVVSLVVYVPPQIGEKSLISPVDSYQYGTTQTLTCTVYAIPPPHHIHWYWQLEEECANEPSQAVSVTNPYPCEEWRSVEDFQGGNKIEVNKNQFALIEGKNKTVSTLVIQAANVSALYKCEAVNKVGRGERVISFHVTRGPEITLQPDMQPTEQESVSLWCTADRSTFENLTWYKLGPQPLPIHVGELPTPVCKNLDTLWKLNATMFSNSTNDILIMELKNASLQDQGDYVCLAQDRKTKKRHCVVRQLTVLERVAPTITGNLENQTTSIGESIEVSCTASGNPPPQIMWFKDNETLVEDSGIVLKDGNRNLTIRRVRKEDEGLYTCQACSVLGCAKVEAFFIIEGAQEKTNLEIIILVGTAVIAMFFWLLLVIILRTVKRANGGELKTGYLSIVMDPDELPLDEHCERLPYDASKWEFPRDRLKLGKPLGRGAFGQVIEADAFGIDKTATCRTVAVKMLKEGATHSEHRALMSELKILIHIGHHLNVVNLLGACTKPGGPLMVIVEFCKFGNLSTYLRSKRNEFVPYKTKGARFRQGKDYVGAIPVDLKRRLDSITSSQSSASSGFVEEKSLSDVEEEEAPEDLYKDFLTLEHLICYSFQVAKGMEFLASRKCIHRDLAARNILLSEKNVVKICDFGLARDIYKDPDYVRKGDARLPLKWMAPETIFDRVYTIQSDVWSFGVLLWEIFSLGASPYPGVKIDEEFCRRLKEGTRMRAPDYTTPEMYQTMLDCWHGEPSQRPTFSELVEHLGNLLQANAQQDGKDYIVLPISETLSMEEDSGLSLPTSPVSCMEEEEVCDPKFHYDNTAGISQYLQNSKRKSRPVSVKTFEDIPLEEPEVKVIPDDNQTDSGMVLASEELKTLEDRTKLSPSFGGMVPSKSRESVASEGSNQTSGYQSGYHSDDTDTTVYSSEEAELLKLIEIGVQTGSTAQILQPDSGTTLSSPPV
Maternal embryonic leucine zipper kinase (Homo sapiens), sequence (Q14680 whole entry, looked up, the tested form may be a part): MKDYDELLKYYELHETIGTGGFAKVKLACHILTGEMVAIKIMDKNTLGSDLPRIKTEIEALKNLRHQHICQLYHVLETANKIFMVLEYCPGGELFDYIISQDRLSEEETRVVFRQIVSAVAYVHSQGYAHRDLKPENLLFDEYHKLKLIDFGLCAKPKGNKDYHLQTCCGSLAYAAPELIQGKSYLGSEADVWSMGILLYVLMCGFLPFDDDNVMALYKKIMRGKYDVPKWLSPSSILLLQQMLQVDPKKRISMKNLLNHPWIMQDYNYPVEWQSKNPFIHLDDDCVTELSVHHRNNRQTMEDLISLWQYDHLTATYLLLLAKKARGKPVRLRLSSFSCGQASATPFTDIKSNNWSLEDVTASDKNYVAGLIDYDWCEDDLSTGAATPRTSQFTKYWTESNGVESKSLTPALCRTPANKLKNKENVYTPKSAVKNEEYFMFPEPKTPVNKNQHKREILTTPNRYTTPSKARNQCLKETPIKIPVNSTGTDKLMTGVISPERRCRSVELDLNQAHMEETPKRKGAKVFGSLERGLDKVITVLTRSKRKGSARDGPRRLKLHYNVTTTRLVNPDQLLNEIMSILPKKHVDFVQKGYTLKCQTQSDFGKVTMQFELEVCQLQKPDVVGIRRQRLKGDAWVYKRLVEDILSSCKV

In the case of `CN1C(=O)[C@@H](NC(=O)c2n[nH]c3ncc(C(F)(F)C(F)(F)F)cc23)COc2ccccc21`, the inhibition in test [1] is 8%; in [2], 15.5%; in test [3], -6%; in test [4], 4.5%; in [5], 3.5%; in test [6] it was 2%. Further, the inhibition is 4% in [7], 8% in test [8], 0.5% in test [9] and 2% in test [10].
